Tests used:
[1] = Stability test in buffer (pH 7.4); format: physicochemical; details: phosphate buffer/acetonitrile 7:3, 100 mM potassium phosphate buffer (pH 7.4) and acetonitrile 7:3 (v/v), LC/MS; for remaining at 10 min: 10 minutes at 37°C, read-out: Buf. remaining rate (%/10min); for remaining at 1 h: 60 minutes at 37°C, read-out: Buf. remaining rate (%/60min)
Procedure: In the tables, Buf. remaining rate was determined by stability test in buffer (pH 7.4) as described below. A sample dissolved in DMSO was mixed with a mixed solution of 100 mM potassium phosphate buffer and acetonitrile in the ratio of 7:3 (v/v). The mixture was incubated at 37°C for 0, 10, and 60 minutes, and acetonitrile containing formic acid (final concentration: 0.1%) was added thereto. The solution was centrifuged, and the concentration of the sample (unchanged form) in the supernatant was determined by high performance liquid chromatography/mass spectrometry (LC/MS). Based on the data obtained, Buf. remaining rate (%) was calculated according to the following equation. Buf.remaining rate(%) = amount of sample 0,10, or 60 minutes after incubation/amount of sample at zero time after incubation × 100 [formula]

[2] = Metabolic stability test in plasma; format: in vitro ADME, human; details: LC/MS; for remaining at 10 min: unchanged form after 10 minutes at 37°C in human plasma, read-out: Remaining rate in human plasma (%/10min); for remaining at 1 h: unchanged form after 60 minutes at 37°C in human plasma, read-out: Remaining rate in human plasma (%/60min)
Procedure: A sample dissolved in DMSO was added to plasma of human or animal species (mouse and hamster). The solutions were incubated at 37°C for 0, 10 and 60 minutes, and acetonitrile containing formic acid (final concentration: 0.1%) was added thereto. The solutions were centrifuged, and the concentration of the sample (unchanged form) in the supernatant was determined by high performance liquid chromatography/mass spectrometry (LC/MS). Based on the data obtained, the remaining rate (%) was calculated according to the following equation. Remaining rate(%) = amount of sample 0,10, or 60 minutes after incubation/amount of sample at zero time after incubation × 100 [formula]
(§1) With respect to the compounds obtained in Working Examples according to the present invention (Compounds 1-1 to 1-115, 2-1, 3-1, 3-2, and 4-1 to 4-4), the results of the remaining rate in human liver S9 and plasma are shown in Tables 28 to 32.

[3] = Metabolic stability test in liver S9; format: in vitro ADME; details: pH 7.4, human liver S9 2 mg protein/mL, LC/MS; for remaining at 10 min: unchanged form after 10 minutes at 37°C, read-out: Remaining rate in human liver S9 (%/10min); for remaining at 1 h: unchanged form after 60 minutes at 37°C, read-out: Remaining rate in human liver S9 (%/60min)
Procedure: Human liver S9 (final concentration: 2 mg protein/mL), was suspended in 100 mM potassium phosphate buffer (pH 7.4, containing β-nicotinamide adenine dinucleotide phosphate: 1.3 mM, D-glucose-6- phosphate: 3.3 mM, magnesium chloride: 3.3 mM, glucose-6-phosphate dehydrogenase:0.4 U/mL). The suspension was mixed with a solution of a sample dissolved in DMSO. The solution was incubated at 37°C for 0, 10 and 60 minutes, and an acetonitrile containing formic acid (final concentration: 0.1%) was added thereto. The solutions were centrifuged, and the concentration of the sample (unchanged form) in the supernatant was determined by high performance liquid chromatography/mass spectrometry (LC/MS). Based on the data obtained, remaining rate (%) was calculated according to the following equation. Remaining rate(%) = amount of sample 0,10, or 60 minutes after [formula] incubation/amount of sample at zero time after incubation × 100 [formula]
as §1

Structure (SMILES)	remaining at 10 min [1]	remaining at 1 h [1]	remaining at 10 min [2]	remaining at 1 h [2]	remaining at 10 min [3]	remaining at 1 h [3]
COC(=O)c1ccc(OC(=O)CCCc2ccc(NC(=O)c3ccccc3-c3ccc(C(F)(F)F)cc3)c(C(=O)N(C)C)c2)cc1OC [Compound 1-17, 4-(4-{3-dimethylcarbamoyl-4-[(4'-trifluoromethylbiphenyl-2-carbonyl)amino]phenyl}butyryloxy) -2-methoxybenzoic acid methyl ester]	100%	105%	0%	0%	0%	0%
COC(=O)c1ccc(OC(=O)CCCc2ccc(NC(=O)c3ccccc3-c3ccc(C(F)(F)F)cc3)c(C(=O)N(C)C)c2)c(C(F)(F)F)c1 [Compound 1-20, 4-(4-{3-dimethylcarbamoyl-4-[(4'-trifluoromethylbiphenyl-2-carbonyl)amino]phenyl}butyryloxy)-3-trifluoromethylbenzoic acid methyl ester]	102%	99%	0%	0%	0%	0%
COC(=O)c1ccc(OC(=O)CCCc2ccc(NC(=O)c3ccccc3-c3ccc(C(F)(F)F)cc3)c(C(=O)N(C)C)c2)cc1C(F)(F)F [Compound 1-21, 4-(4-{3-dimethylcarbamoyl-4-[(4'-trifluoromethylbiphenyl-2-carbonyl)amino]phenyl}butyryloxy)-2-trifluoromethylbenzoic acid methyl ester]	104%	103%	0%	0%	0%	0%
CN(C)C(=O)c1cc(CCCC(=O)Oc2ccc(C(=O)OCc3ccccc3)cc2)ccc1NC(=O)c1ccccc1-c1ccc(C(F)(F)F)cc1 [Compound 1-24, 4-(4-{3-dimethylcarbamoyl-4-[(4'-trifluoromethylbiphenyl-2-carbonyl)amino]phenyl}butyryloxy)benzoic acid benzyl ester]	95%	95%	9%	4%	10%	6%
COC(=O)c1ccc(OC(=O)CCCc2ccc(NC(=O)c3ccccc3-c3ccc(C(F)(F)F)cc3)c(C(=O)N3CCOCC3)c2)cc1 [Compound 1-26, 4-(4-{3-(morpholine-4-carbonyl)-4-[(4'-trifluoromethylbiphenyl-2-carbonyl)amino]phenyl}butyryloxy)benzoic acid methyl ester]	99%	102%	23%	0%	0%	0%
CC(C)OC(=O)c1ccc(OC(=O)CCCc2ccc(NC(=O)c3ccncc3-c3ccc(C(F)(F)F)cc3)c(C(=O)N(C)C)c2)cc1 [Compound 1-29, 4-[4-(3-dimethylcarbamoyl-4-{[3-(4-trifluoromethylphenyl)pyridine-4-carbonyl]amino}phenyl)butyryloxy]benzoic acid isopropyl ester]	98%	98%	41%	0%	1%	0%
CC(C)OC(=O)c1ccc(OC(=O)CCCc2ccc(NC(=O)c3cccnc3-c3ccc(C(F)(F)F)cc3)c(C(=O)N(C)C)c2)cc1 [Compound 1-31, 4-[4-(3-dimethylcarbamoyl-4-{[2-(4-trifluoromethylphenyl)pyridine-3-carbonyl]amino}phenyl)butyryloxy]benzoic acid isopropyl ester]	101%	102%	26%	0%	0%	0%

The remaining lines, values ahead:

remaining at 10 min [1]	remaining at 1 h [1]	remaining at 10 min [2]	remaining at 1 h [2]	remaining at 10 min [3]	remaining at 1 h [3]	Structure (SMILES)
101%	98%	0%	0%	0%	0%	COC(=O)c1ccc(OC(=O)CCCc2ccc(NC(=O)c3ccccc3-c3ccc(C(F)(F)F)cc3)c(C(=O)N(C)C)c2)cc1Cl [Compound 1-18, 2-chloro-4-(4-{3-dimethylcarbamoyl-4-[(4'-trifluoromethylbiphenyl-2-carbonyl)amino]phenyl}butyryloxy)benzoic acid methyl ester]
107%	100%	0%	0%	0%	0%	COC(=O)c1ccc(OC(=O)CCCc2ccc(NC(=O)c3ccccc3-c3ccc(C(F)(F)F)cn3)c(C(=O)N(C)C)c2)cc1 [Compound 1-19, 4-(4-{3-dimethylcarbamoyl-4-[2-(5-trifluoromethylpyridin-2-yl)benzoylamino]phenyl}butyryloxy)benzoic acid methyl ester]
96%	98%	8%	0%	0%	0%	CC(=O)c1ccc(OC(=O)CCCc2ccc(NC(=O)c3ccccc3-c3ccc(C(F)(F)F)cc3)c(C(=O)N(C)C)c2)cc1 [Compound 1-22, 4-(3-dimethylcarbamoyl-4-[(4'-trifluoromethylbiphenyl-2-carbonyl)amino]phenyl}butyric acid 4-acetylphenyl ester]
99%	99%	21%	0%	0%	0%	CN(C)C(=O)c1cc(CCCC(=O)Oc2ccc(C#N)cc2)ccc1NC(=O)c1ccccc1-c1ccc(C(F)(F)F)cc1 [Compound 1-23, 4-{3-dimethylcarbamoyl-4-[(4'-trifluoromethylbiphenyl-2-carbonyl)amino]phenyl}butyric acid 4-cyanophenyl ester]
99%	101%	89%	59%	4%	0%	CN(C)C(=O)c1cc(CCCC(=O)Oc2ccc(C(=O)O)cc2)ccc1NC(=O)c1ccccc1-c1ccc(C(F)(F)F)cc1 [Compound 1-25, 4-(4-{3-dimethylcarbamoyl-4-[(4'-trifluoromethylbiphenyl-2-carbonyl)amino]phenyl}butyryloxy) benzoic acid]
97%	102%	10%	0%	0%	0%	COC(=O)c1ccc(OC(=O)CCc2ccc(NC(=O)c3ccccc3-c3ccc(C(F)(F)F)cc3)c(C(=O)N(C)C)c2)cc1 [Compound 1-27, 4-(3-{3-dimethylcarbamoyl-4-[(4'-trifluoromethylbiphenyl-2-carbonyl)amino]phenyl}propionyloxy)benzoic acid methyl ester]
101%	102%	0%	0%	0%	0%	COC(=O)c1ccc(OC(=O)CCCc2ccc(NC(=O)c3cccnc3-c3ccc(C(F)(F)F)cc3)c(C(=O)N(C)C)c2)cc1 [Compound 1-28, 4-[4-(3-dimethylcarbamoyl-4-{[2-(4-trifluoromethylphenyl)pyridine-3-carbonyl]amino}phenyl)butyryloxy]benzoic acid methyl ester]
99%	99%	0%	0%	0%	0%	COC(=O)c1ccc(OC(=O)CCCc2ccc(NC(=O)c3ccncc3-c3ccc(C(F)(F)F)cc3)c(C(=O)N(C)C)c2)cc1 [Compound 1-30, 4-[4-(3-dimethylcarbamoyl-4-{[3-(4-trifluoromethylphenyl)pyridine-4-carbonyl]amino}phenyl)butyryloxy]benzoic acid methyl ester]

From patent EP1803452A1, “ESTER DERIVATIVE AND PHARMACEUTICAL USE THEREOF” (Japan Tobacco, Inc., priority 2004, dated 2006)
